Data as given in patent publication US20210000844A1, “OPHTHALMIC COMPOSITION COMPRISING DIQUAFOSOL AND CATIONIC POLYMER” (Santen Pharmaceutical Co., Ltd., priority 2018, published 2021).

System: Cultured peripheral nerve cells (dorsal neuro ganglion neuron)
Assay: Test 4: stimulatory property of diquafosol sodium to peripheral nerves (intracellular calcium fluorescence)
Assay type: cell-based
Conditions: stimulation control group (buffer solution instead of formulation solution); diquafosol sodium final concentration 0.3%
Experimental: The stimulatory property of diquafosol sodium to peripheral nerves in the presence of PVP which is a type of […] was examined. “PVP” denotes polyvinylpyrrolidone. “CMC-Na” denotes carboxymethylcellulose sodium. “HPMC” denotes hydroxypropylmethylcellulose. “CVP” denotes a carboxyvinyl polymer.
Cultured peripheral nerve cells (dorsal neuro ganglion neuron; purchased from Lonza Japan Ltd.) were incubated in a buffer solution containing an intracellular calcium indicator fluorescent dye (FLIPR Calcium 6 Assay Kit; Molecular Devices, LLC). 40% of the total amount of the buffer solution was replaced by each of the above-described formulation solutions. A non-stimulation group and a stimulation control group were similarly treated with the buffer solution instead of the formulation solution. The cells were left standing at room temperature, followed by starting fluorescence measurement over time with the calcium indicator dye using a fluorescence plate reader. 60 seconds after the start of the measurement, diquafosol sodium (final concentration: 0.3%) was added, and the measurement of fluorescence intensity was continued.
The maximum fluorescence intensity (RFUmax) after addition of diquafosol sodium was calculated as a relative value against the fluorescence intensity (RFU) immediately before the addition, with the fluorescence intensity (RFU) defined as 100%.

O=c1ccn([C@@H]2O[C@H](COP(=O)([O-])OP(=O)([O-])OP(=O)([O-])OP(=O)([O-])OC[C@H]3O[C@@H](n4ccc(=O)[nH]c4=O)[C@H](O)[C@@H]3O)[C@@H](O)[C@H]2O)c(=O)[nH]1.[Na+].[Na+].[Na+].[Na+] [diquafosol sodium, diquafosol tetrasodium salt]
maximum fluorescence intensity (RFUmax) after addition of diquafosol sodium: ≥ 103.5%
